This is an account of results in patent publication EP0891975A1 (priority 1996, dated 1997).

The structures appear in SMILES notation. Like-named read-outs stand apart in the source and are kept apart here.

Data set [1] deals with Larvae of Nilaparvata lugens. The data set is described as follows: Insecticidal effect on larvae of Nilaparvata lugens (spray on rice seedling in glass cylinder). The class given is in vivo. Conditions: 120 h, read-out: Death Rate (%). How it is done: A rice seedling was setted in a glass cylinder (inner diameter: 3 cm; length: 17 cm), and five 4th instar larvae of Nilaparvata lugens were set free therein. The agricultural and horticultural pesticide of the present invention (an emulsifiable concentrate) was prepared in accordance with Formulation Example 3 and diluted with water, and 0.5 ml of the resulting emulsion was sprayed in the cylinder by means of a spray tower (manufactured by Mizuho Rika) (duplicates at 1 concentration). Five days after the treatment, the mortality and agony of the larvae were examined to obtain a death rate (%) taking an agonizing insect as a 1/2 dead insect. The results obtained are shown in Table 4 (the compound numbers in Table 4 correspond to those in Tables 1, 2 and 3).

The subject of data set [2] is Larvae of Plutella xylostella. The data set is described as follows: Insecticidal effect on larvae of Plutella xylostella (cabbage leaf disc dip). The data set is classed as in vivo. Conditions: foliar, 96 h, read-out: Death Rate (%). How it is done:
The agricultural and horticultural pesticide of the present invention (a wettable powder) was obtained in accordance with Formulation Example 1 and diluted with water to prepare a suspension having a prescribed concentration. A disc (6 cm in diameter) cut out of a cabbage leaf was soaked in the suspension for 1 minute, air-dried, and placed in a plastic cup (inner diameter: 7 cm). Five 3-instar larvae of Plutella xylostella were put in the cup (duplicates at one concentration). Four days later, the death and agony of the larvae were examined to obtain a death rate (%) taking an agonizing insect as a 1/2 dead insect. The results obtained are shown in Table 5 (the compound numbers in Table 5 correspond to those in Tables 1, 2 and 3).

Data set [3] relates to Rice Blast Fungus (Magnaporthe grisea). The class given is in vivo. As to conditions: 250 ppm, 10 ml/pot foliar spray, rice (Akinishiki), lesions per leaf counted vs untreated pot after 24 hours moist chamber and 7 days greenhouse.
Data set [4] deals with Tomato Late Blight Fungus (Phytophthora infestans). The class given is in vivo. As to conditions: 250 ppm, 10 ml per pot foliar spray, tomato (Red Cherry), degree of disease vs untreated pot after 24 hours moist chamber and 4 days greenhouse.
The nature of data set [5]: Acute toxicity in mice in single oral administration. Conditions: mouse, in vivo, 30 mg/kg, 30 mg-active ingredient/kg, five 6-week-old CD-1 male mice, 7 days after administration, read-out: Death Rate (%). How it is done: Acute toxicity (p.o.) in mice of compound Nos. 8, 10, 13, 22, 23, 38, 42, and 52 was examined as follows. For comparison, compounds (IV), (V) and (VI) disclosed in JP-A-2-62876 were tested similarly.
Compound Nos. 8, 10, 22, 23, 38, and 42 (30 mg each) were each suspended in 10 ml of a 0.5% CMC-Na aqueous solution. Compound Nos. 13 and 52 and compounds (IV), (V) and (VI) (30 mg each) were each suspended in 10 ml of a 0.5% tragacanth gum aqueous solution. The suspension was orally given to a group each consisting of five 6-week-old CD-1 male mice (available from Charles River) at a dose of 10 ml-suspension per kg of the body weight. The number of dead mice was counted after 7 days from the administration to obtain a death rate.

Where [6] appears, read: 500 ppm, emulsifiable concentrate diluted with water, 4th instar larvae, five days after treatment, agonizing insect counted as 1/2 dead.
The mark [7] stands for this setting: 500 ppm, wettable powder suspension, 3-instar larvae, four days later, agonizing insect counted as 1/2 dead.

Turning to `Cc1nn(C)c(C(=O)NCc2ccc(Oc3cccc(C(F)(F)F)c3)nc2)c1C` [Compound No. 10, N-[6-(3-Trifluoromethylphenoxy)-3-pyridylmethyl]-1,3,4-trimethyl-5-pyrazolecarboxamide], the mortality at 500 ppm in data set [1] and in data set [2] was 100% each time. The figures for the “Control Value (%)” value in data set [3] and in data set [4] were 89% and 100%, respectively. Besides, the mortality at 168 h in data set [5] was found to be 0%.

As for `Cc1nn(C)c(C(=O)NCc2ccc(Oc3cccc(Cl)c3)nc2)c1C` [compound 8], the mortality at 500 ppm in data set [1] (setting [6]) amounted to 100%. In data set [4], the “Control Value (%)” value stood at 100%. The mortality at 168 h in data set [5] turned out to be 0%.

For the molecule `Cc1nn(C)c(C(=O)NCc2ccc(Oc3ccc4ccccc4c3)nc2)c1Br` [compound 23], in data set [5], the mortality at 168 h is 0%.

With `CCc1nn(C)c(C(=O)NCc2ccc(Oc3cccc(C(F)(F)F)c3)nc2)c1Cl` [compound 13], the mortality at 500 ppm in data set [1] (setting [6]) and in data set [2] (setting [7]) was 100% each time. The “Control Value (%)” value in data set [3] is recorded as 87%; in data set [4] it was 85%. In addition, the mortality at 168 h in data set [5] was 0%.

Regarding `Cc1nn(C)c(C(=O)NCc2ccc(Oc3ccc4ccccc4c3)nc2)c1Cl` [compound 22], the “Control Value (%)” value in data set [4] is 100%. In addition, the mortality at 168 h in data set [5] stood at 0%.

Consider `CCc1nn(C)c(C(=O)NCc2ccc(Oc3ccc4ccccc4c3)nc2)c1Cl` [compound 38], for which the mortality at 500 ppm in data set [1] (setting [6]) and in data set [2] (setting [7]) was 90% throughout. The “Control Value (%)” value in data set [3] worked out at 100%. Also, the mortality at 168 h in data set [5] worked out at 0%.

Turning to `COc1c(C)nn(C)c1C(=O)N(Cc1ccc(Oc2ccc3ccccc3c2)nc1)C(C)=O` [compound 52], the mortality at 500 ppm in data set [1] (setting [6]) came to 90%. Besides, in data set [4], the “Control Value (%)” value worked out at 100%. Also, the mortality at 168 h in data set [5] is 0%.

For the molecule `Cn1nc2c(c1C(=O)NCc1ccc(Oc3ccc4ccccc4c3)nc1)CCC2` [compound 42], the results for the mortality at 500 ppm in data set [1] (setting [6]) and in data set [2] (setting [7]) were 90% and 100%, respectively. For the same molecule, in data set [4], the “Control Value (%)” value came out at 100%. In data set [5], the mortality at 168 h stood at 0%.
